US12576163B2, “Fluorescent contrast agent with targeting function, and preparation method and use thereof” (priority 2022, dated 2026)

Columns and labels:
[1] = test system: induced RAW264.7 cells (CD206); conditions: pre-blocking 2 h at 10-100 mg/mL, then FITC-MR780 NPs 40 μg/mL 2 h; FCM
Protocol: After 2 h of co-incubation, the DMEM was changed, FITC-MR780 NPs 40 μg/mL was added in each group, and then co-incubation was conducted for 2 h. A fluorescence signal of FITC in cells of each group was determined by FCM.
2 h before the blocking experiment, free mannose was added in advance at different concentrations, then FITC-MR780 NPs were added, and then co-incubation was conducted for 2 h. An intracellular fluorescence intensity of FITC was determined by FCM.

[2] = UV-VIS and fluorescence spectroscopy; assay type: physicochemical; conditions: UV-VIS spectrum
Protocol: A size of the contrast agent was detected with the Zetasizer nano-ZS. 10 μL of each of MR780 NPs, FITC-MR780 NPs, and FITC-DSPC NPs was taken and added dropwise on a mesh, air-dried, stained with phosphotungstic acid (10 μL, 3.0%), then washed with deionized water, and air-dried. Morphological images of the mannose contrast agents were acquired through high-resolution transmission electron microscopy (HRTEM). Since MR780 NPs need to emit reduced glutathione-responsive fluorescence in a tumor microenvironment, it must be ensured that MR780 NPs can stably restore the fluorescence signal after reacting with reduced glutathione. 10 μL of MR780 NPs was thoroughly mixed with 10 mM reduced glutathione, and a resulting mixture was shaken at room temperature in the dark; and the fluorescence restoration of MR780 NPs in each group was tested at 10 min, 1 h, 2 h, and 4 h. The UV-VIS spectroscopy and fluorescence spectroscopy were conducted respectively on a UV-VIS spectrophotometer and a fluorescence spectrophotometer.

[3] = test system: CD206 on a surface of RAW264.7 cells; assay: Induction of macrophage differentiation, CD206 expression by FCM; assay type: cell-based, mouse; conditions: 24 h with inducer (IL-4 20 ng/mL; LPS 100 ng/mL)
Protocol: RAW264.7 cells at a logarithmic growth phase were plated in a 6-well plate at a density of 1×10^5 cells/mL, then a DMEM was added at 2 mL/well, the plate was incubated overnight, and then interleukin-4 (IL-4) was added to the culture at a final concentration of 20 ng/mL. The IL-4 was an M2 macrophage inducer. In a control group, an M1 macrophage inducer lipopolysaccharide (LPS) was added to the culture at a final concentration of 100 ng/mL and then incubated for 24 h.
The expression of CD206 on a surface of RAW264.7 cells before and after induction was determined by FCM. Cells were digested and centrifuged, 0.5 μg of mouse CD16/32 monoclonal antibody (mAb) was added, and a resulting mixture was incubated at room temperature for 10 min. Then 0.5 mL of a 1× fixation buffer was added, a resulting mixture was incubated in the dark for 20 min and then centrifuged at 350 g for 5 min, and a resulting supernatant was discarded. 2 mL of a membrane disruption solution was added, and a resulting suspension was centrifuged at 350 g for 5 min; and the operation was repeated once. […] 200 μL of PBS was added to resuspend the cells, and the expression of CD206 on a cell surface in each of the two groups was detected by FCM.

Q: With Nc1ccc(O[C@H]2O[C@H](CO)[C@@H](O)[C@H](O)[C@@H]2O)cc1 [free mannose, 4-aminophenyl-α-D-mannopyranoside] as the molecule, how does the “phagocytosis of cells for FITC-MR780 NPs after pre-blocking” value [1] read?
A: The value was “decreases significantly”.

Q: For CCCN1/C(=C/C=C2\CCCC(/C=C/C3=[N+](CCC)c4ccccc4C3(C)C)=C2Cl)C(C)(C)c2ccccc21.[I-] [IR780], which “UV-VIS maximum absorbance / maximum absorption peak” value [2] is on record?
A: Its value is 780 nm.

B1: IL-4: interleukin-4, M2 macrophage inducer (protein, UniProt P05112 25-153, looked up)
Interleukin-4: HKCDITLQEIIKTLNSLTEQKTLCTELTVTDIFAASKNTTEKETFCRAATVLRQFYSHHEKDTRCLGATAQQFHRHKQLIRFLKRLDRNLWGLAGLNSCPVKEANQSTLENFLERLKTIMREKYSKCSS
Q: With B1 as the molecule, how does the “expression of CD206” value [3] read?
A: Its value is 81.22±0.64%.
